Laboratory results from patent US20240279602A1, “METHOD FOR PRODUCING CEREBRAL CORTICAL CELL PREPARATION DERIVED FROM HUMAN PLURIPOTENT STEM CELLS” (Kyoto University, priority 2021, published 2024).

How the values were obtained:
cerebral organoids [1] = test: Single-cell gene expression analysis of Rosettes organoids with or without DAPT; format: cell-based, human; details: Rosettes organoids treated with DAPT for 3 days (DAPT+)
Method: First, to prepare a single-cell suspension from an organoid, the organoid was separated into single cells with dispersing solution for neural cells (FUJIFILM Wako Pure Chemical Corporation) under recommended conditions. The dispersed cells were resuspended in HBSS supplemented with 10% (v/v) KSR and 10 μM Y-27632 (FUJIFILM Wako Pure Chemical Corporation) at a density of 1,000 cells/μL. Into a Chromium Next GEM Chip G (2000177 10X Genomics, Inc.), approximately 4,670 cells were loaded per channel, and treated with a Chromium controller to acquire Gel Beads-in-Emulsion (GEM). Libraries were produced by using Chromium Next GEM Single Cell 3′ Reagent Kits v3.1 (1000121; 10X Genomics, Inc.) in accordance with a protocol from the manufacturer (CG000204 Rev C). The sequences of the libraries were analyzed with Novaseq 6000 (Illumina, Inc.).
Cell Ranger pipeline was used for mapping of sequences in single-cell RNA-seq. GRCh38 human genome sequences were used as reference genome sequences. UMI count values acquired through analysis with a next-generation sequencer were analyzed by using Seurat R package. First, data of organoids were normalized by a Log-Normalize method, and then all the data of organoids were integrated. […]

cerebral organoids [2] = test: Flow cytometry of marker expression after DAPT treatment; format: cell-based, human
Method: Cerebral organoids, cerebral cortical cell aggregates, and high-purity cerebral cortical cell aggregates were dispersed into single cells by using dispersing solution for neural cells (FUJIFILM Wako Pure Chemical Corporation), fixed by using Fixation Buffer (BD Biosciences) at 4° C. for 30 minutes, then treated with Perm/Wash buffer (BD Biosciences) at room temperature for 15 minutes, subjected to double or triple staining, and analyzed by using an Aria III. The analysis software used was FACSDiva software (BD). The primary antibodies and secondary antibodies used are shown in the following. • PerCP-Cy5.5 Mouse IgGI k isotype control: 550795 (BD Biosciences) Alexa 647 Mouse Anti-human Oct3/4 antigen: 560329 (BD Biosciences) • Tra-2-49/6E-FITC antibody: FCMAB133F (Merck) • Alexa647 mouse anti β-tubulin Class III: 560394 (BD) • PerCP-Cy5.5 Mouse anti-Human Sox1: 561549 (BD) • Alexa647 mouse anti-Human Pax6: 561165(BD) • Alexa488 mouse anti-Ki67: 562249 (BD) • Alexa488 rat anti-Ctip2 antibody: ab123449 (Abcam)
Next, cell aggregates immediately after DAPT treatment (immediately after the completion of step (ii)) were analyzed for the proportions of constituent cells by means of flow cytometry. Cerebral organoids on Day 40 were subjected to DAPT treatment for 3 days, and expressions of marker genes were then analyzed by flow cytometry.
Furthermore, iPS cells on Day 0 (undifferentiated iPS cells), organoids not subjected to DAPT treatment (Ctrl, without step (ii)), organoids subjected to DAPT treatment for 3 days (Day 40 to 43) (DAPT 3d, with step (ii)), and organoids subjected to DAPT treatment for 3 days and subsequently cultured again, as cell aggregates without being dispersed into cells, with a culture medium removed of DAPT for 4 days (DAPT 3d+Release 4d, with step (ii) and step (iv), and without step (iii)) were analyzed by flow cytometry; the results are shown in FIG. 15.
Culture was performed in the same manner as the scheme in FIG. 3 as in Example 1 from −Day 7 to Day 35. A culture medium obtained by adding 5 μM SB431542 to StemFit culture medium without solution C(=bFGF-free culture medium) was used in step (1) in the case of “with preparation for neural differentiation” (with step (1)), and StemFit culture medium was used in the case of “without preparation for neural differentiation” (without step (1)). Thereafter, cerebral cortical cell aggregates were induced by the method described for step (ii) in Example 4, and evaluated by immunostaining. In addition, high-density cerebral cortical cell aggregates were induced by dispersing into single cells and then reaggregating the single cells by the method described for step (iii) and step (iv) in Example 4, and analyzed by flow cytometry.
In the “single-cell DAPT method (DAPT treatment is performed in step (iv))” in FIG. 24(B), cerebral organoids were screened on day 38 after the initiation of induction of differentiation and dispersed into single cells by the method described for step (iii) in Example 4, and the cells were then suspended in a culture medium obtained by adding 10 ng/mL GDNF, 20 ng/mL BDNF, 200 μM ascorbic acid, 400 μM dibutyryl-cAMP, and 30 μM Y-27632 to the culture medium in step (2b) with addition of DAPT at a concentration of 0 μM, 0.1 μM, 1 μM, or 10 μM. Subsequently, the cells were regathered by the method described for step (iv) in Example 4 in the presence of DAPT, and cultured for 1 day, 2 days, or 3 days. Thereafter, the culture medium was switched to a culture medium obtained by adding 10 ng/mL GDNF, 20 ng/mL BDNF, 200 μM ascorbic acid, and 400 μM dibutyryl-cAMP to the culture medium in step (2b), and culture was continued until day 10 after the initiation of reaggregation. The cells on day 3, day 4, or day 10 after the initiation of reaggregation were analyzed by RT-qPCR, and the cells on day 10 were analyzed by flow cytometry; the results are shown in FIGS. 25 to 27. […]

[3] = DAPT 3d+Release 4d: DAPT 3 days, then 4 days in medium removed of DAPT, without dispersion
[4] = single-cell DAPT method (step (iv)), DAPT raised from 0 μM to 10 μM, 3 days treatment, 10 days culture
[5] = week 5 organoids dispersed, 10 μM DAPT 3 days, then DAPT-free culture to 4 days vs 14 days
[6] = without preparation for neural differentiation (without step (1)), DAPT treatment, dispersion and reaggregation

SMILES: C[C@H](NC(=O)Cc1cc(F)cc(F)c1)C(=O)N[C@H](C(=O)OC(C)(C)C)c1ccccc1 [DAPT, N-[N-(3,5-difluorophenacetyl)-L-alanyl]-S-phenylglycine t-butyl ester]
- cell population with expression of Pax6 and MKI67 (cerebral organoids [1]): largely shrunk
- proportion of Ki67/Sox1/Pax6-triple-positive cells (cerebral organoids [2]; [3]): 0%
- proportion of cells co-positive for Ctip2 and βIII-tubulin (cerebral organoids [2]; [3]): 87.4%
- proportion of Pax6-positive/Sox1-positive/Ki67-positive cells (proliferative cells) (cerebral organoids [2]; cerebral organoids on Day 40, DAPT treatment for 3 days (DAPT 3d)): 0.01%
- proportion of Ctip2/βIII-tubulin-double-positive cells (cerebral organoids [2]; cerebral organoids on Day 40, DAPT treatment for 3 days (DAPT 3d), all viable cells): 86.1%
- proportion of Pax6/Ki67-double-positive neural stem cells (radial glia) (cerebral organoids [2]; cerebral organoids on Day 40, DAPT treatment for 3 days, all viable cells): 1.5%
- cells with co-expression of Tra2-49/6E and Oct4 (undifferentiated iPS cell indicator) (cerebral organoids [2]; organoids under any of the conditions (DAPT 3d, DAPT 3d+Release 4d)): not detected
- proportion of Ctip2/βTubIII (Tuj1)-double-positive cells (cerebral organoids [2]; [4]): 89.6%
- proportion of Pax6-positive/Sox1-positive/Ki67-positive cells (proliferative cells) (cerebral organoids [2]; [4]): 0.8%
- proportion of Ctip2/Tuj1-co-positive cells (cerebral organoids [2]; [5]): increase
- proportion of Pax6/Ki67-double-positive cells and of Pax6/Ki67/Sox1-triple-positive cells (cerebral organoids [2]; [5]): decreased as the culture period after DAPT treatment was extended
- proportion of Ctip2/βTubIII-double-positive cells (cerebral organoids [2]; [6]): 85.9%
- proportion of Pax6-positive/Sox1-positive/Ki67-positive cells (proliferative cells) (cerebral organoids [2]; [6]): 0%
- proportion of Pax6/Ki67-double-positive neural stem cells (radial glia) (cerebral organoids [2]; [6]): 1.9%
